Each block holds one substance with its values, some of them ahead of it. Where no end group is shown, it is not given here.
Assays:
Phenion skin models = test: H&E staining of cryosections of Phenion skin models; assay type: cell-based; details: FIG. 5 B; 0.5 mM peptide, no allergen
Procedure: (§1) The investigations were carried out using Phenion FTS full skin models (Phenion, Henkel). These were maintained for 3 days at 37° C. and 7% CO2 in deep-well plates having a […] pore size in the cell culture inserts. The skin models were maintained in 1.5 ml of air-liquid interface medium without phenol red. The medium was changed daily. The test substances were dissolved in ethanol and incubated at room temperature for 24 h. After culturing for 24 h, 25 μl of the substance solution was dripped onto a sterile filter paper that had previously been laid on the skin model. The barrier peptide (0.5 mM AcRFAACAA) had previously been applied to the model as a solution in 100 mM phosphate buffer (pH 7.5). Alternatively, the barrier peptide was applied in a formulation having a content of 0.25% by weight.
(§2) After culturing for a further 24 h, the models were harvested and one half embedded in OCT mounting medium (VWR Q-Path Chemicals), the other half snap-frozen in liquid nitrogen. The supernatant of each model was collected and stored at −20° C.
In further investigations, frozen sections were thawed and incubated for 10 min in 3.7% paraformaldehyde at RT. After three PBS wash steps and one minute in distilled water, they are stained for 3 min in hematoxylin solution. […]

[1] = tested on: Phenion FTS full skin models; test: Cytokine release (IL8, IL6) in supernatants of Phenion FTS full skin models, Bio-Plex multiplex immunoassay; assay type: cell-based, human; details: FIGS. 2 to 4 left bar; 0.5 mM peptide without allergen
Procedure: as §1, §2
The supernatants were then analyzed (FIGS. 2, 3 and 4).
The supernatants of the Phenion FTS models were analyzed using the Bio-Plex Pro Human Cytokine Screening Panel (Bio-Rad) according to the manufacturer's protocol. […] The cytokine concentrations are calculated on the basis of the standard curves from the Bioplex system. […]

[2] = Barrier effect against metals
[3] = Direct peptide reaction assay (DPRA) with urushiols, Ellman's reagent, 24 h; details: FIG. 9; urushiol structures I-V, 24 h reaction, n=3
Procedure: The reaction courses shown in FIGS. 8 and 9 were determined colorimetrically through the reaction of the peptide with Ellmann's reagent in a photometer. In this reaction, DTNB ((5,5′-dithiobis-2-nitrobenzoic acid, Ellmann's reagent) is cleaved and attached to the SH residue of the amino acid cysteine of the peptides of the invention (Ac-RFAACAA, RFAACAA).
The SH radical is at the same time the reactive binding site of the peptide with the allergens. The color reaction with DTNB (color change from colorless to yellow) competes with the allergen reaction. This means that the better the allergen reacts with the peptide, the less peptide remains available for the reaction with the detection reagent, i.e. the less the resulting yellow coloration.
The control is the peptide in the buffer system without allergen, i.e. instead of allergen only its solvent (ethanol) is added.
Urushiols of the structure below were used.
The investigated urushiols differ in the saturation in the side chain R.
Urushiols where R═C15 singly (C15:1), doubly (C15:2) or triply (C15:3) unsaturated were investigated.

skin model morphology (H&E) with peptide on its own (Phenion skin models): unchanged | skin model IL8/IL6 release with peptide on its own [1]: unchanged
Substance: Ac-RFAACAA [Ac-RFAACAA, acetylarginine-phenylalanine-alanine-alanine-cysteine-alanine-alanine]

Substance: His His His His His His (HHHHHH; printed: His His His His His His)
barrier effect against metals and nickel in particular [2]: achieved a barrier effect

Substance: RFAACAA [Arg Phe Ala Ala Cys Ala Ala]
reactivity and thus protective activity against urushiols [3]: very high reactivity
